Residues, ends and D or L forms follow the SMILES beside them. *: point of attachment. X1 = O=C(COc1ccc(C(=C(c2ccccc2)c2ccccc2)c2ccccc2)cc1)*; Palmitoyl = CCCCCCCCCCCCCCCC(=O)*
Experiment: cyto-toxicity by MTT assay
Type: cell-based
Details: human, MCF-7 cells; TR4 0.05-50 μM, incubation for 30 min, MCF-7, data not shown; read-out: cellular viability

Question: Which viability at 0.5 h does the source give for CCCCCCCCCCCCCCCC(=O)NCCCC[C@H](NC(=O)COc1ccc(C(=C(c2ccccc2)c2ccccc2)c2ccccc2)cc1)C(=O)N[C@@H](CCCNC(=N)N)C(=O)N[C@@H](CCCNC(=N)N)C(=O)N[C@@H](CCCNC(=N)N)C(=O)N[C@@H](CCCNC(=N)N)C(N)=O [TR4] (X1-K(Palmitoyl)RRRR-NH2) here?
Answer: > 80%

Reference: patent publication US9835558B2, “Aggregation-induced emission luminogen having an peptide sequence and its uses thereof” (priority 2015, dated 2017)
